From patent US12268694B2, “Combination pharmaceutical agents as RSV inhibitors” (Enanta Pharmaceuticals, Inc., priority 2017, dated 2025)

Test system: genotype A, "Long" strain RSV
Test: RSV-A assay: CPE protection in HEp-2 cells, ATPlite readout
Format: cell-based, human respiratory syncytial virus
Conditions: HEp-2 cells, RSV-A Long strain, ATPlite readout; read-out: Human RSV-A (“Long” strain) EC50
Source text: HEp-2 cells, (originally derived from tumors grown in irradiated-cortisonised weanling rats that had been injected with epidermoid carcinoma tissue from a person's larynx, but later found to be indistinguishable from HeLa cells by PCR DNA analysis), were used for the culturing of genotype A, “Long” strain RSV. Flasks were inoculated with RSV and viral stocks were collected once cytopathic effect (CPE) was greater than 90%. Viral stocks in 25% sucrose media were snap frozen using liquid nitrogen to increase viral stability. Viral stock titers were quantified by tissue culture infectious dose 50% (TCID50) using 8,000 cells per well and 3-fold viral dilutions across a 96-well plate, cultured for 4 days. Viral stock titers were also quantified by a plaque forming unit assay, as described elsewhere.
Following extensive parameter testing, the final assay is run as follows: HEp-2 cells are seeded into the inner 60 wells of a 96-well plate at 8,000 cells per well in a volume of 50 μL using Growth Media (DMEM without phenol red, 1% L-Glut, 1% Penn/Strep, 1% nonessential amino acids, 10% heat-inactivated FBS). 2-fold serial dilutions of control and test compounds are added to the wells in duplicate in a total volume of 25 μL. Viral stock is then added to the wells at a multiplicity of infection (MOI) of 0.1 in a volume of 25 μL, bringing the total volume of each well to 100 μL. The MOI is calculated using the PFU/mL, or TCID50 if unavailable. Each 96-well plate has a control column of 6 wells with cells and virus but no compound (negative control, max CPE), a column with cells but no compound or virus (positive control, minimum CPE), and a column with no cells or virus or compound (background plate/reagent control). The control wells with cells but no virus are given an additional 25 μL of growth media containing an equal quantity of sucrose as those wells receiving the viral stock in order to keep consistent in media and volume conditions. The outer wells of the plate are filled with 125 μL of moat media (DMEM, 1% Penn/Strep) to act as a thermal and evaporative moat around the test wells. Following a 5-day incubation period, the plates are read using ATPlite (50 μL added per well), which quantifies the amount of ATP (a measure of cell health) present in each well. Assay plates are read using the Envision luminometer. In parallel, cytotoxicity is examined on an additional 96-well plate treated in an identical manner, but substituting the 25 μL of viral stock for 25 μL of growth media. […] EC50 ranges are as follows: A <0.4 μM; B 0.4-0.8 μM; C >0.8 μM and CC50 ranges are as follows: A >50 μM; B 10-50 μM; C <10 μM.

Q: How did the EC50 turn out when `O=C1Nc2ccccc2C(c2ccccc2)=N[C@@H]1Nc1ncc(-c2ncc(C(F)(F)F)cc2N2CCOCC2)o1` [Example 442] was run?
A: < 400 nM

Q: `O=C1Nc2ccccc2C(c2ccccc2)=N[C@H]1Nc1nnc(-c2nc(C(F)(F)F)sc2N2CCO[C@H]3C[C@H]32)o1` [Example 487] was tested. Which EC50 did it give?
A: > 800 nM

Q: Which EC50 does the source give for `COC[C@@H]1C[C@H]1c1sc(C(F)(F)F)nc1-c1nnc(N[C@H]2N=C(c3ccccc3)c3ccccc3NC2=O)o1` [Example 394] here?
A: > 800 nM

Q: `O=C1Nc2ccccc2C(c2ccccc2)=N[C@@H]1Nc1nnc(-c2cn(CC(F)(F)F)nc2N2CCOCC2)o1` [Example 489] was tested. Which EC50 did it give?
A: > 800 nM

Same assay, conditions: human respiratory syncytial virus, HEp-2, read-out: Human RSV-A (“Long” strain) EC50

Q: `O=C1Nc2ccccc2C(c2ccccc2)=NC1Nc1nnc([C@@H]2CCCN2C2CCNCC2)o1` (stereo partly shown) [Example 227] was tested. Which EC50 did it give?
A: > 800 nM

Q: For `O=C1Nc2ccccc2C(c2ccccc2)=N[C@@H]1Nc1nnc(-c2ccc(C(F)(F)F)cc2N2CCOCC2)o1` [Example 152], which EC50 is on record?
A: < 400 nM

Q: Which EC50 does the source give for `CC1(Nc2nnc(-c3ccc(F)cc3)o2)N=C(c2ccccc2)c2ccccc2NC1=O` (stereo not shown) [Example 230] here?
A: > 800 nM

Q: `O=C1Nc2ccccc2C(c2ccccc2)=N[C@@H]1Nc1nnc(-c2cnc(C(F)(F)F)nc2N2CCOCC2)o1` [Example 162] was tested. Which EC50 did it give?
A: < 400 nM

Q: For `O=C1Nc2ccccc2C(c2ccccc2)=NC1Nc1cc(N2CCOCC2)cnn1` (stereo not shown) [Example 463], which EC50 is on record?
A: > 800 nM

Q: For `COc1ccc2nccc(-c3nnc(N[C@H]4N=C(c5ccccc5)c5ccccc5NC4=O)o3)c2c1` [Example 408], which EC50 is on record?
A: > 800 nM

Q: How did the EC50 turn out when `CCOC(=O)c1nnc(NC2N=C(c3ccccc3)c3ccccc3NC2=O)o1` (stereo not shown) [Example 78] was run?
A: > 800 nM

Q: How did the EC50 turn out when `O=C1Nc2ccccc2C(c2ccccc2)=NC1Nc1nnc([C@@H]2CCCO2)o1` (stereo partly shown) [Example 207] was run?
A: > 800 nM

Q: How did the EC50 turn out when `O=C1Nc2ccccc2C(c2ccccc2)=N[C@@H]1Nc1nnc(-c2ncc(C(F)(F)F)cc2NC2COC2)o1` [Example 469] was run?
A: < 400 nM

Q: `O=C1Nc2ccccc2C(c2ccccc2)=N[C@@H]1Nc1nnc(-c2nc(C(F)(F)F)sc2NCC2COC2)o1` [Example 475] was tested. Which EC50 did it give?
A: 400 to 800 nM

Q: Which EC50 does the source give for `CCc1nc(N2CCOCC2)c(-c2nnc(N[C@H]3N=C(c4ccccc4)c4ccccc4NC3=O)o2)cc1C#N` [Example 176] here?
A: < 400 nM

Q: How did the EC50 turn out when `COCc1ccc2nccc(-c3nnc(N[C@H]4N=C(c5ccccc5)c5ccccc5NC4=O)o3)c2c1` [Example 409] was run?
A: > 800 nM

Q: For `O=C1Nc2ccccc2C(c2ccccc2)=N[C@@H]1Nc1nnc(-c2nc(C(F)(F)F)sc2N[C@@H]2CCOC2)o1` [Example 474], which EC50 is on record?
A: < 400 nM

Q: For `O=C1Nc2ccccc2C(c2ccccc2)=N[C@@H]1Nc1nnc(-c2ccc(N3CCOCC3)cc2)o1` [Example 124a], which EC50 is on record?
A: < 400 nM

Q: How did the EC50 turn out when `O=C1Nc2ccccc2C(c2ccccc2)=NC1Nc1nnc(-c2ccc(-n3ccnc3)cc2)o1` (stereo not shown) [Example 231] was run?
A: < 400 nM

Q: How did the EC50 turn out when `O=C1Nc2ccccc2C(c2ccccc2)=NC1Nc1nnc(-c2nc(Br)sc2N2CCOCC2)o1` (stereo not shown) [Example 400] was run?
A: < 400 nM

Q: `COc1cc(-c2nnc(NC3N=C(c4ccccc4)c4ccccc4NC3=O)o2)ccn1` (stereo not shown) [Example 56] was tested. Which EC50 did it give?
A: > 800 nM

Q: `O=C1Nc2ccccc2C(c2ccccc2)=N[C@@H]1Nc1nnc(-c2ncsc2C2=CCOCC2)o1` [Example 347] was tested. Which EC50 did it give?
A: < 400 nM

Q: `O=C1Nc2ccccc2C(c2ccccc2)=N[C@@H]1Nc1nnc(-c2cnc(-n3cccn3)nc2N2CCOCC2)o1` [Example 172] was tested. Which EC50 did it give?
A: > 800 nM

Q: `O=C1Nc2ccccc2C(c2ccccc2)=N[C@@H]1Nc1nnc(-c2sc3ncccc3c2N2CCOCC2)o1` [Example 180] was tested. Which EC50 did it give?
A: < 400 nM

Q: For `CC(C)(O)CNc1cc(C(F)(F)F)cnc1-c1nnc(N[C@H]2N=C(c3ccccc3)c3ccccc3NC2=O)o1` [Example 297], which EC50 is on record?
A: < 400 nM

Q: With `O=C1Nc2ccccc2C(c2ccccc2)=NC1Nc1nnc(C2CCCC2)o1` (stereo not shown) [Example 197] as the compound, how does the EC50 read?
A: > 800 nM

Q: How did the EC50 turn out when `COc1ccc(-c2ccc(NC3N=C(c4ccccc4)c4ccccc4NC3=O)nn2)cc1` (stereo not shown) [Example 376] was run?
A: > 800 nM

Q: With `N#Cc1ccc(-c2nnc(N[C@H]3N=C(c4ccccc4)c4ccccc4NC3=O)o2)c(N2CC3CCC(C2)O3)c1` [Example 281] as the compound, how does the EC50 read?
A: < 400 nM

Q: For `O=C1Nc2ccccc2C(c2ccccc2)=N[C@@H]1Nc1nnc(-c2nc(C(F)(F)F)sc2C2=CCOCC2)o1` [Example 453], which EC50 is on record?
A: < 400 nM

Q: How did the EC50 turn out when `O=C1Nc2ccccc2C(c2ccccc2)=NC1Nc1ncc(-c2ccc(Br)cc2)o1` (stereo not shown) [Example 370] was run?
A: > 800 nM

Q: How did the EC50 turn out when `CCn1cc(-c2nnc(N[C@H]3N=C(c4ccccc4)c4ccccc4NC3=O)o2)c(N2CCOCC2)n1` [Example 401] was run?
A: < 400 nM

Q: How did the EC50 turn out when `O=C1Nc2ccccc2C(c2ccccc2)=NC1Nc1nnc(-c2ccc(-n3cncn3)c(F)c2)o1` (stereo not shown) [Example 216] was run?
A: 400 to 800 nM

Q: Which EC50 does the source give for `O=C1Nc2ccccc2C(c2ccccc2)=NC1Nc1nnc(-c2ncc(C(F)(F)F)cc2CCO)o1` (stereo not shown) [Example 450] here?
A: > 800 nM

Q: Which EC50 does the source give for `O=C1Nc2ccccc2C(c2ccccc2)=N[C@@H]1Nc1nnc(-c2cnc(-n3cncn3)nc2N2CCOCC2)o1` [Example 173] here?
A: > 800 nM

Q: How did the EC50 turn out when `N#Cc1ccc(-c2nnc(N[C@H]3N=C(c4ccccc4)c4ccccc4NC3=O)o2)c(N2C3CCC2COC3)c1` [Example 289] was run?
A: < 400 nM

Q: Which EC50 does the source give for `COCCN(C)c1ccc(-c2nnc(NC3N=C(c4ccccc4)c4ccccc4NC3=O)o2)cc1` (stereo not shown) [Example 118] here?
A: > 800 nM

Q: `COCCn1ccc2cccc(-c3nnc(N[C@H]4N=C(c5ccccc5)c5ccccc5NC4=O)o3)c21` [Example 426] was tested. Which EC50 did it give?
A: > 800 nM

Q: `CCOC1(c2nc(-c3nnc(N[C@H]4N=C(c5ccccc5)c5ccccc5NC4=O)o3)c(N3CCOCC3)s2)CCC1` (stereo in doubt) [Example 458] was tested. Which EC50 did it give?
A: < 400 nM

Q: Which EC50 does the source give for `Cn1nnc(-c2ccc(-c3nnc(NC4N=C(c5ccccc5)c5ccccc5NC4=O)o3)cc2)n1` (stereo not shown) [Example 186] here?
A: > 800 nM

Q: For `COCCCc1sc(C(F)(F)F)nc1-c1nnc(N[C@H]2N=C(c3ccccc3)c3ccccc3NC2=O)o1` [Example 396], which EC50 is on record?
A: > 800 nM

Q: How did the EC50 turn out when `Cc1nc(-c2nnc(NC3N=C(c4ccccc4)c4ccccc4NC3=O)o2)ccc1C#N` (stereo not shown) [Example 200] was run?
A: 400 to 800 nM

Q: For `COCCCc1sc(C)nc1-c1nnc(N[C@H]2N=C(c3ccccc3)c3ccccc3NC2=O)o1` [Example 479], which EC50 is on record?
A: > 800 nM

Q: Which EC50 does the source give for `Cc1nsc(N2CCOCC2)c1-c1nnc(N[C@H]2N=C(c3ccccc3)c3ccccc3NC2=O)o1` [Example 465] here?
A: 400 to 800 nM

Q: For `O=C1Nc2ccccc2C(c2ccccc2)=NC1Nc1ncc(-c2ccc(F)cc2)o1` (stereo not shown) [Example 369], which EC50 is on record?
A: > 800 nM

Q: For `O=C1Nc2ccccc2C(c2ccccc2)=NC1Nc1nnc(-c2ccccc2N2CCOCC2)[nH]1` (stereo not shown) [Example 367], which EC50 is on record?
A: > 800 nM

Q: Which EC50 does the source give for `O=C1Nc2ccccc2C(c2ccccc2)=N[C@@H]1Nc1nnc(-c2cnc(C(F)(F)F)nc2N2CC3CCC(C2)O3)o1` [Example 290] here?
A: > 800 nM

Q: With `O=C1Nc2ccccc2C(c2ccccc2)=N[C@@H]1Nc1nnc(-c2ccc(C3CC3)nc2N2CCOCC2)o1` [Example 154] as the compound, how does the EC50 read?
A: < 400 nM

Q: How did the EC50 turn out when `Cn1cc(-c2cc(C#N)ccc2-c2nnc(N[C@H]3N=C(c4ccccc4)c4ccccc4NC3=O)o2)ccc1=O` [Example 315] was run?
A: > 800 nM

Q: Which EC50 does the source give for `Cn1cc(-c2nc(-c3nnc(N[C@H]4N=C(c5ccccc5)c5ccccc5NC4=O)o3)c(N3CCOCC3)s2)cn1` [Example 399] here?
A: < 400 nM

Q: How did the EC50 turn out when `COc1cnc(-c2nnc(NC3N=C(c4ccccc4)c4ccccc4NC3=O)o2)c(F)c1` (stereo not shown) [Example 185] was run?
A: > 800 nM

Q: With `COCCN1CCCn2ncc(-c3nnc(N[C@H]4N=C(c5ccccc5)c5ccccc5NC4=O)o3)c21` [Example 438] as the compound, how does the EC50 read?
A: 400 to 800 nM

Q: Which EC50 does the source give for `O=C1Nc2ccccc2C(c2ccccc2)=N[C@@H]1Nc1nnc(-c2nc(-c3ccccc3F)sc2N2CCOCC2)o1` [Example 427] here?
A: < 400 nM
